One assay concerns HIV-1 mutant K65R. Description: MT2/XTT combination assay, resistant virus K65R. Format: cell-based. Particulars: for pEC50: Human immunodeficiency virus 1, K65R; for fold difference from WT: K65R. How it is done:
Triplicate samples of compound were tested. MT2 cells were infected with xxLAI at a multiplicity of infection (MOI) of 0.03 for 3 hours at 37° C. in 5% CO2. The infected cells were plated at 3.0×10^4/well into a 96 well plated containing drug dilutions and incubated for 5 days at 37° C. in CO2. […] This method has been modified into a susceptibility assay and has been used in a variety of in vitro antiviral tests and is readily adaptable to any system with a lytic virus (Weislow, O. S., et. al. 1989). Using the absorption values of the cell controls as 100% protection and no drug, virus infected cells as 0% protection, a dose response curve is generated by plotting % protection on the Y axis and drug concentration on the X axis. From this curve EC50 values were determined.
Assays were performed in the MT2 cell line as described above in the XXT sensitivity assay section.
The restraint strains analyzed included viruses created by site directed mutagenesis, K65R and L74V, as well as a recombinant virus containing mutations at positions 98S, 116Y, 151M and 215Y. The wild type backbone in which these mutants were created, xxLAI, was also analyzed for comparison. The concentrations of DAPD and DXG tested were as described in the above MT2/XTT combination assay section.
The concentrations of MPA used were 1, 0.5, 0.25, 0.1, and 0.01 μM. Assays were performed in the MT2 cell line as described in section 3.1.
The restraint strains analyzed included viruses created by site directed mutagenesis, K65R and L74V, as well as a recombinant virus containing mutations at positions 98S, 116Y, 151M and 215Y. The wild type backbone in which these mutants were created, xxLAI, was also analyzed for comparison. The concentrations of DAPD and DXG tested were as described in section 4.1. MPA was tested in combination with DAPD and DXG at a fixed concentration of 0.25 μM.

For a further assay, the system named is xxLAI strain of HIV-1. Description: microbe, parasite or virus in culture. The assay is classed as cell-based. Particulars: for effect of addition of 0.25 μM MPA on anti-HIV activity in PBMCs / effect of addition of 20 μM RBV on anti-HIV activity in PBMCs / Fold difference in EC50, 0.01 μM MPA / Fold difference in EC50, 0.1 μM MPA / Fold difference in EC50, 0.25 μM MPA / Fold difference in EC50, 5 μM RBV / Fold difference in EC50, 10 μM RBV / Fold difference in EC50, 20 μM RBV: PBMC; for effect of addition of 0.25 μM MPA on anti-HIV activity in PBMCs / effect of addition of 20 μM RBV on anti-HIV activity in PBMCs: all the concentrations tested; for Fold difference in EC50, 0.01 μM MPA: control vs with 0.01 μM MPA; for Fold difference in EC50, 0.1 μM MPA: control vs with 0.1 μM MPA; for Fold difference in EC50, 0.25 μM MPA: control vs with 0.25 μM MPA; for Fold difference in EC50, 5 μM RBV: control vs with 5 μM RBV; for Fold difference in EC50, 10 μM RBV: control vs with 10 μM RBV; for Fold difference in EC50, 20 μM RBV: control vs with 20 μM RBV. How it is done: In this assay, cell supernatants were incubated on microelisa wells coated with antibodies to HIV-1 p24 core antigen. Subsequently, anti-HIV-1 conjugate labeled with horseradish peroxidase was added. The labeled antibody bound to the solid phase antibody/antigen complexes previously formed. Addition of the tetramethylbenzidine substrate results in blue color formation. The color turned yellow when the reaction is stopped. The plates were then analyzed on a plate reader set at 490 nm. The absorbance is a direct measurement of the amount of HIV-1 produced in each well and a decrease in color indicates decreased viral production. […] PBMC were obtained from HIV-1 negative donors by banding on Ficoll gradients, stimulated with phytohemaglutinin (PHAP) for 48 hours prior to infection with HIV-1, and infected with virus for 4 hours at 37° C. at a MOI of 0.001. […] Plates were incubated for 3 days at 37° C. The concentration of virus in each well was determined using the NEN p24 assay. Using the absorption values of the cell controls as 100% protection and drug free, virus infected cells as 0% protection, a dose response curve is generated by plotting percent protection on the Y axis and drug concentration on the X axis. From this curve, EC50 values were determined.
Compound dilutions and assay conditions were as described above.
MPA was also tested for activity against the xxLAI strain of HIV-1 in PBMCs using a p24 based Elisa assay. In this assay, cell supernatants are incubated on microelisa wells coated with antibodies to HIV-1 p24 core antigen. Subsequently, anti-HIV-1 conjugate labeled with horse radish peroxidase is added. The labeled antibody binds to the solid phase antibody/antigen complexes previously formed. Addition of the tetramethylbenzidine substrate results in blue color formation. The color turns yellow when the reaction is stopped. The plates are then analyzed on a plate reader set at 490 nm. The absorbance is a direct measurement of the amount of HIV-1 produced in each well and a decrease in color indicates decreased viral production. Dilutions of MPA were made in cell culture media in a 96 well plate, the highest concentration of MPA tested was 1 μM. PBMC were obtained from HIV-1 negative donors by banding on Ficoll gradients, stimulated with phytohemaglutinin (PHAP) for 48 hours prior to infection with HIV-1, and infected with virus for 4 hours at 37° C. at a MOI of 0.001. Infected cells were seeded into 96 well plates containing 4-fold serial dilutions of MPA. Plates were incubated for 3 days at 37° C. The concentration of virus in each well was determined using the NEN p24 assay. Using the absorption values of the cell controls as 100% protection and drug free, virus infected cells as 0% protection, a dose response curve is generated by plotting % protection on the Y axis and drug concentration on the X axis. From this curve EC50 values were determined.
Compound dilutions and assay conditions were as described above. The concentrations of MPA used were 1, 0.5, 0.25, 0.1, and 0.01 μM.

Setting [1] is: Human immunodeficiency virus 1, PBMC, read-out: Mean EC50, Control, PMBCs, no MPA.
Where [2] appears, read: Human immunodeficiency virus 1, PBMC, read-out: Mean EC50, Control, PMBCs, no RBV.
The mark [3] stands for this setting: read-out: Mean EC50, 0.01 μM MPA, PMBCs, with 0.01 μM MPA.
The mark [4] stands for this setting: read-out: Mean EC50, 0.1 μM MPA, PMBCs, with 0.1 μM MPA.
[5] abbreviates: read-out: Mean EC50, 0.25 μM MPA, PMBCs, with 0.25 μM MPA.
Setting [6] is: read-out: Mean EC50, 1 μM RBV, PMBCs, with 1 μM RBV.
Setting [7] is: read-out: Mean EC50, 5 μM RBV, PMBCs, with 5 μM RBV.
[8] abbreviates: read-out: Mean EC50, 10 μM RBV, PMBCs, with 10 μM RBV.
Where [9] appears, read: read-out: Mean EC50, 20 μM RBV, PMBCs, with 20 μM RBV.

The structures appear in SMILES notation. pEC50: −log10 of the molar value. Where two headings read alike, the source gives them in different places. Marks after values point to notes of the source that are not given here.

Turning to `Nc1nc(N)c2ncn(C3COC(CO)O3)c2n1` (single isomer, unassigned; (-)) [DAPD], the pEC50 is 4.36 with HIV-1 mutant K65R (compound alone (Table 4)); 4.39 in the assay on HIV-1 mutant K65R (compound alone (Table 10)); 5.39 in the assay on xxLAI strain of HIV-1 (setting [1]); 5.35 in the assay on xxLAI strain of HIV-1 (setting [2]); 6.05 in the assay with xxLAI strain of HIV-1 (setting [3]); 6.74 in the assay with xxLAI strain of HIV-1 (setting [4]). Also, the pEC50 with xxLAI strain of HIV-1 (setting [5]) is more than 9.70; in the assay with xxLAI strain of HIV-1 (setting [6]) it was 5.65; in the assay on xxLAI strain of HIV-1 (setting [7]) it was 6.15; in the assay on xxLAI strain of HIV-1 (setting [8]) it was 6.80; in the assay with xxLAI strain of HIV-1 (setting [9]), more than 7.52. The figures for the “fold difference from WT” value in the assay with HIV-1 mutant K65R (compound alone (Table 4)) and with HIV-1 mutant K65R (compound alone (Table 10)) were “(5.5)^b fold” and 6 fold, respectively. In addition, in the assay on xxLAI strain of HIV-1 (with 0.25 μM MPA), the “effect of addition of 0.25 μM MPA on anti-HIV activity in PBMCs” value is reported as “completely inhibited HIV replication”. Moreover, the “effect of addition of 20 μM RBV on anti-HIV activity in PBMCs” value with xxLAI strain of HIV-1 (with 20 μM RBV) is reported as “completely inhibited HIV replication”. Also, the “Fold difference in EC50, 0.01 μM MPA” value in the assay on xxLAI strain of HIV-1 is recorded as 4.6 fold. Also, the “Fold difference in EC50, 0.1 μM MPA” value in the assay with xxLAI strain of HIV-1 was 22.8 fold. Moreover, in the assay with xxLAI strain of HIV-1, the “Fold difference in EC50, 0.25 μM MPA” value is recorded as more than 50 fold. For the same compound, in the assay with xxLAI strain of HIV-1, the “Fold difference in EC50, 5 μM RBV” value is 6.4 fold. The “Fold difference in EC50, 10 μM RBV” value in the assay on xxLAI strain of HIV-1 turned out to be 28 fold. In addition, the “Fold difference in EC50, 20 μM RBV” value in the assay with xxLAI strain of HIV-1 is on record as more than 150 fold.
On to `Nc1nc2c(ncn2C2COC(CO)O2)c(=O)[nH]1` (single isomer, unassigned; (-)) [DXG], for which the pEC50 with HIV-1 mutant K65R (compound alone (Table 4)) is 5.41; in the assay with HIV-1 mutant K65R (compound alone (Table 10)), 5.40; with xxLAI strain of HIV-1 (setting [1]), 6.85; with xxLAI strain of HIV-1 (setting [2]) it was 6.82; in the assay with xxLAI strain of HIV-1 (setting [3]) it was 7.82; with xxLAI strain of HIV-1 (setting [4]) it was 8.22. Further, the negative logarithm of the EC50 (pEC50) in the assay with xxLAI strain of HIV-1 (setting [5]) was more than 9.70; with xxLAI strain of HIV-1 (setting [6]), 7.12; with xxLAI strain of HIV-1 (setting [7]), 7.57; in the assay on xxLAI strain of HIV-1 (setting [8]), more than 8.00; in the assay on xxLAI strain of HIV-1 (setting [9]), more than 8.00. In addition, the “fold difference from WT” value in the assay with HIV-1 mutant K65R (compound alone (Table 4)) came to 5 fold; with HIV-1 mutant K65R (compound alone (Table 10)), 5.6 fold. Besides, the “effect of addition of 0.25 μM MPA on anti-HIV activity in PBMCs” value in the assay with xxLAI strain of HIV-1 (with 0.25 μM MPA) is listed as “completely inhibited HIV replication”. Further, the “effect of addition of 20 μM RBV on anti-HIV activity in PBMCs” value in the assay on xxLAI strain of HIV-1 (with 20 μM RBV) is recorded as “completely inhibited HIV replication”. Moreover, the “Fold difference in EC50, 0.01 μM MPA” value in the assay on xxLAI strain of HIV-1 is on record as 9.3 fold. The “Fold difference in EC50, 0.1 μM MPA” value with xxLAI strain of HIV-1 was 23.3 fold. Further, in the assay with xxLAI strain of HIV-1, the “Fold difference in EC50, 0.25 μM MPA” value is reported as more than 50 fold. Moreover, the “Fold difference in EC50, 5 μM RBV” value with xxLAI strain of HIV-1 stood at 5.6 fold. Besides, the “Fold difference in EC50, 10 μM RBV” value in the assay on xxLAI strain of HIV-1 is on record as more than 15 fold. Further, in the assay with xxLAI strain of HIV-1, the “Fold difference in EC50, 20 μM RBV” value is more than 15 fold.

For the origin of these results see US20020173491A1, “DAPD combination therapy with inosine monophosphate dehydrogenase inhibitor” (priority 2000, published 2002).
